# Experimental data from US20050159596A1, “Cyclic compounds and their use as complex ligands” (Basf Aktiengesellschaft, priority 2002, published 2005).
# Legend:
# [1] = Solubility in organic solvents; type: physicochemical; conditions: for solubility (in words): compared with methanol, ethanol and acetonitrile; for solubility: organic solvent or mixture; for solubility in organic solvents (in words): all organic solvents
solubility (in words) ([1]; in chloroform),solubility (in words) ([1]; in dimethylformide),solubility ([1]; in acetonitrile) [µM],solubility ([1]; in ethanol) [µM],solubility ([1]; in methanol) [µM],melting point [°C],SMILES,solubility in organic solvents (in words) [1]
improved,improved,< 1,< 1,< 1,358 to 362,"c1cc(-c2cccc3nc(-c4nc5cccc(-c6cccc7ncoc67)c5o4)oc23)c2ocnc2c1 [Compound 13, 7,7′:2′,2″:7′″,7′″-Quaterbenzoxazole]",
,,,,,,"c1cc2c3oc(nc3c1)-c1cccc3nc(oc13)-c1cccc3nc(oc13)-c1cccc3nc-2oc13 [Compound 5, Cyclo-2,7′:2′,7″:2′″,7′″:2′″,7-quaterbenzoxazole]",very limited solubility
,,,,,,"c1cc2c3[nH]c(nc3c1)-c1cccc3nc([nH]c13)-c1cccc3nc([nH]c13)-c1cccc3nc-2[nH]c13 [Compound 8, Cyclo-2,4′:2′,7″:2″4′″:2′″,7-quaterbenzimidazole]",even lower solubility in organic solvents than compound (5)
